Reference: the supplement of paper PMC8671470

System: myeloid leukemia patient primary cells Pat.6
Test: cell viability (% survival relative to DMSO control); higher = less cytotoxic
Conditions: 10 nM; 72 h
Outline: (§1)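 Where an area under the curve appears, it was computed with the drc and PharmacoGx R packages from log-logistic fits. Those fits used four parameters. The underlying viability data came from CellTiter-Glo after 72 h, normalised to DMSO and 10 μM proteasome-inhibitor wells, with thawed, Ficoll-purified AML or CML patient mononuclear cells at 10,000 cells/well in RPMI 1640 with 10% FBS on 384-well plates pre-printed with 70 compounds at five tenfold concentrations (1–10,000 nM) in duplicate.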

Row | SMILES | cell viability [%]
1 | O=C1c2cc([N+](=O)[O-])ccc2-n2c1nc1ccccc1c2=O [GNF-Pf-3777] | 98.8
2 | O=C(O)Cn1nnc(-c2cc(N3CCC(Oc4cc(F)ccc4Br)CC3)no2)n1 [MK-8245] | 97.2
3 | C=C(C=NNC(=N)N)NNC(=N)N [Mitoguazone] | 82
4 | COc1cc(/C=C/C(=O)N2CCC=CC2=O)cc(OC)c1OC [Piperlongumine] | 96.6
5 | C=C(C)[C@H]1Cc2c(ccc3c2O[C@@H]2COc4cc(OC)c(OC)cc4[C@@H]2C3=O)O1 [Rotenone] | 75.4
6 | Oc1ccc(Nc2nc(-c3ccc(Cl)cc3)cs2)cc1 [SKI II] | 98.7
7 | CC[C@@]1(O)C(=O)OCc2c1cc1n(c2=O)Cc2cc3c(CN(C)C)c(O)ccc3nc2-1 [Topotecan] | 97.4

Same assay, conditions: 100 nM; 72 h

Row | SMILES | cell viability [%]
8 | O=C(C1CC1)N1CC[C@@H](C=C2NNC(=O)N2c2ccc(-c3ccc4occc4c3)cc2)C1 | > 100
9 | C[C@H](NC(=O)c1sccc1OCc1ccc(Cl)cc1)c1ccccc1 | 99.6
10 | O=C(O)C1=CC(=C(c2ccc(O)c(C(=O)O)c2)c2ccc(O)c(C(=O)O)c2)C=CC1=O [Aurintricarboxylic acid] | > 100
11 | COC(=O)[C@]12CCC(C)(C)C[C@H]1[C@H]1C(=O)C=C3[C@@]4(C)C=C(C#N)C(=O)C(C)(C)[C@@H]4CC[C@@]3(C)[C@]1(C)CC2 [Bardoxolone methyl] | 75
12 | Cc1c(-c2ccc(-c3ccccc3F)cc2)nc2ccc(F)cc2c1C(=O)O [Brequinar] | 93.9
13 | O=C1O/C(=C/Br)CCC1c1cccc2ccccc12 (centres undefined) [Bromoenol Lactone] | > 100
14 | Nc1nc(Cl)nc2c1ncn2[C@H]1C[C@H](O)[C@@H](CO)O1 [Cladribine] | 19.2
15 | N#CC(C#N)=NNc1ccc(OC(F)(F)F)cc1 [FCCP] | 88.8
16 | O=C1c2cc([N+](=O)[O-])ccc2-n2c1nc1ccccc1c2=O [GNF-Pf-3777] | 98.6
17 | O=C(O)Cn1nnc(-c2cc(N3CCC(Oc4cc(F)ccc4Br)CC3)no2)n1 [MK-8245] | 97.3
18 | C=C(C=NNC(=N)N)NNC(=N)N [Mitoguazone] | 44.5
19 | COc1cc(/C=C/C(=O)N2CCC=CC2=O)cc(OC)c1OC [Piperlongumine] | 86.2
20 | C=C(C)[C@H]1Cc2c(ccc3c2O[C@@H]2COc4cc(OC)c(OC)cc4[C@@H]2C3=O)O1 [Rotenone] | 47.2
21 | Oc1ccc(Nc2nc(-c3ccc(Cl)cc3)cs2)cc1 [SKI II] | 95.4
22 | CC[C@@]1(O)C(=O)OCc2c1cc1n(c2=O)Cc2cc3c(CN(C)C)c(O)ccc3nc2-1 [Topotecan] | 94.6

Same assay, conditions: 1000 nM; 72 h

Row | SMILES | cell viability [%]
23 | O=C(C1CC1)N1CC[C@@H](C=C2NNC(=O)N2c2ccc(-c3ccc4occc4c3)cc2)C1 | 89.4
24 | C[C@H](NC(=O)c1sccc1OCc1ccc(Cl)cc1)c1ccccc1 | 91.5
25 | O=C(O)C1=CC(=C(c2ccc(O)c(C(=O)O)c2)c2ccc(O)c(C(=O)O)c2)C=CC1=O [Aurintricarboxylic acid] | > 100
26 | COC(=O)[C@]12CCC(C)(C)C[C@H]1[C@H]1C(=O)C=C3[C@@]4(C)C=C(C#N)C(=O)C(C)(C)[C@@H]4CC[C@@]3(C)[C@]1(C)CC2 [Bardoxolone methyl] | 17.6
27 | Cc1c(-c2ccc(-c3ccccc3F)cc2)nc2ccc(F)cc2c1C(=O)O [Brequinar] | 97.8
28 | O=C1O/C(=C/Br)CCC1c1cccc2ccccc12 (centres undefined) [Bromoenol Lactone] | 86
29 | Nc1nc(Cl)nc2c1ncn2[C@H]1C[C@H](O)[C@@H](CO)O1 [Cladribine] | 6.84
30 | N#CC(C#N)=NNc1ccc(OC(F)(F)F)cc1 [FCCP] | 65.5
31 | O=C1c2cc([N+](=O)[O-])ccc2-n2c1nc1ccccc1c2=O [GNF-Pf-3777] | 94.3
32 | O=C(O)Cn1nnc(-c2cc(N3CCC(Oc4cc(F)ccc4Br)CC3)no2)n1 [MK-8245] | > 100
33 | C=C(C=NNC(=N)N)NNC(=N)N [Mitoguazone] | 1.04
34 | COc1cc(/C=C/C(=O)N2CCC=CC2=O)cc(OC)c1OC [Piperlongumine] | > 100
35 | C=C(C)[C@H]1Cc2c(ccc3c2O[C@@H]2COc4cc(OC)c(OC)cc4[C@@H]2C3=O)O1 [Rotenone] | 37.3
36 | Oc1ccc(Nc2nc(-c3ccc(Cl)cc3)cs2)cc1 [SKI II] | 93.1
37 | CC[C@@]1(O)C(=O)OCc2c1cc1n(c2=O)Cc2cc3c(CN(C)C)c(O)ccc3nc2-1 [Topotecan] | 75.1

Same assay, conditions: 10000 nM; 72 h

Row | SMILES | cell viability [%]
38 | O=C(C1CC1)N1CC[C@@H](C=C2NNC(=O)N2c2ccc(-c3ccc4occc4c3)cc2)C1 | 79.5
39 | C[C@H](NC(=O)c1sccc1OCc1ccc(Cl)cc1)c1ccccc1 | 35.7
40 | O=C(O)C1=CC(=C(c2ccc(O)c(C(=O)O)c2)c2ccc(O)c(C(=O)O)c2)C=CC1=O [Aurintricarboxylic acid] | 97.7
41 | COC(=O)[C@]12CCC(C)(C)C[C@H]1[C@H]1C(=O)C=C3[C@@]4(C)C=C(C#N)C(=O)C(C)(C)[C@@H]4CC[C@@]3(C)[C@]1(C)CC2 [Bardoxolone methyl] | 72.1
42 | Cc1c(-c2ccc(-c3ccccc3F)cc2)nc2ccc(F)cc2c1C(=O)O [Brequinar] | 96.8
43 | O=C1O/C(=C/Br)CCC1c1cccc2ccccc12 (centres undefined) [Bromoenol Lactone] | 33.1
44 | Nc1nc(Cl)nc2c1ncn2[C@H]1C[C@H](O)[C@@H](CO)O1 [Cladribine] | 6.92
45 | N#CC(C#N)=NNc1ccc(OC(F)(F)F)cc1 [FCCP] | 20
46 | O=C1c2cc([N+](=O)[O-])ccc2-n2c1nc1ccccc1c2=O [GNF-Pf-3777] | 66.8
47 | O=C(O)Cn1nnc(-c2cc(N3CCC(Oc4cc(F)ccc4Br)CC3)no2)n1 [MK-8245] | 97
48 | C=C(C=NNC(=N)N)NNC(=N)N [Mitoguazone] | 50.8
49 | COc1cc(/C=C/C(=O)N2CCC=CC2=O)cc(OC)c1OC [Piperlongumine] | 2.54
50 | C=C(C)[C@H]1Cc2c(ccc3c2O[C@@H]2COc4cc(OC)c(OC)cc4[C@@H]2C3=O)O1 [Rotenone] | 23.7
51 | Oc1ccc(Nc2nc(-c3ccc(Cl)cc3)cs2)cc1 [SKI II] | 16.2
52 | CC[C@@]1(O)C(=O)OCc2c1cc1n(c2=O)Cc2cc3c(CN(C)C)c(O)ccc3nc2-1 [Topotecan] | 32.5

System: myeloid leukemia patient primary cells Pat.9
Test: as above
Conditions: 1 nM; 72 h
Outline: as §1

Row | SMILES | cell viability [%]
53 | O=C(C1CC1)N1CC[C@@H](C=C2NNC(=O)N2c2ccc(-c3ccc4occc4c3)cc2)C1 | 95.6
54 | C[C@H](NC(=O)c1sccc1OCc1ccc(Cl)cc1)c1ccccc1 | 84.8
55 | O=C(O)C1=CC(=C(c2ccc(O)c(C(=O)O)c2)c2ccc(O)c(C(=O)O)c2)C=CC1=O [Aurintricarboxylic acid] | > 100
56 | COC(=O)[C@]12CCC(C)(C)C[C@H]1[C@H]1C(=O)C=C3[C@@]4(C)C=C(C#N)C(=O)C(C)(C)[C@@H]4CC[C@@]3(C)[C@]1(C)CC2 [Bardoxolone methyl] | 65.1
57 | Cc1c(-c2ccc(-c3ccccc3F)cc2)nc2ccc(F)cc2c1C(=O)O [Brequinar] | 88.1
58 | O=C1O/C(=C/Br)CCC1c1cccc2ccccc12 (centres undefined) [Bromoenol Lactone] | 66
59 | Nc1nc(Cl)nc2c1ncn2[C@H]1C[C@H](O)[C@@H](CO)O1 [Cladribine] | 84.9
